Measurements reported in US9839618B2, “Compositions and methods relating to proliferative diseases” (The Penn State Research Foundation, priority 2010, dated 2017).

Columns and labels:
[1] = test system: melanoma cell lines (UACC 903, 1205Lu); assay: MTS assay, melanoma cell lines (cell line not given); format: cell-based, human; settings: UACC 903 and 1205 Lu
Experimental: (§1) The mechanistic basis of leelamine's activity to inhibit melanoma cell growth is determined by examining the effect of leelamine on 1) cell viability using the MTS assay; 2) proliferation using a BrdU incorporation assay; 3) apoptosis using an assay for caspase-3/7 activity; and 4) cell cycle analysis. The MTS assay as described in Sharma, A. et al., Clin Cancer Res, 2009, 15:1674-85; and Madhunapantula, S. V. et al., Mol Cancer Ther, 2008, 7:1297-308 is used to assay cell viability. Rates of proliferation and apoptosis are measured by seeding 5×10^3 cells in 96-well plates, followed by treatment with 0.62 to 10 μmol/L of leelamine for 24 hours. Proliferating and apoptotic cells are quantified using a colorimetric cell proliferation ELISA BrdU kit (Roche diagnostics, Indianapolis, Ind.) or Apo-ONE Homogenous caspase-3/7 assay kit (Promega, Madison, Wis.), respectively, as described in Sharma, A. et al., Clin Cancer Res, 2009, 15:1674-85; and Madhunapantula, S. V. et al., Mol Cancer Ther, 2008, 7:1297-308.
Dehydroabietylamine, its N-substituted derivatives and the corresponding dihydroabietylamine and its N-substituted derivatives are tested for their capability to inhibit cell growth of cancer cell lines, including melanoma (UACC 903, 1205Lu), breast (MCF-7), fibrosarcoma (HT-1080), colon (Caco-2), and prostate (PC-3) cancer cell lines. Viability and IC50 of normal human fibroblasts and cell lines from melanoma and other malignancies following treatment with all the agents are measured using the MTS assay (Promega, Madison, Wis.). Human fibroblast FF2441 cells, metastatic melanoma cell lines 1205 Lu and UACC 903 as well as cancer cell lines representing sarcoma (HT-1080), prostate (PC-3, LNCaP), breast (MCF-7) and lung (A-549) are maintained in DMEM (Invitrogen, Carlsbad, Calif.) supplemented with 10% FBS (Hyclone, Logan, Utah) in a 5% CO2 atmosphere, humidified 37° C. incubator. 5×10^3 cells per well in 100 μL of media are plated and grown in a 96-well plate for 48 to 72 h and treated with either DMSO vehicle control or 0.62 to 40 μmol/L for 24, 48 or 72 h. IC50 values for each compound in […] for respective cell lines are measured from three independent experiments using GraphPad Prism version 4.01 (GraphPad Software, La Jolla, Calif.). FIG. 52 is a graph showing IC50 values for leelamine and compounds 4a, 4b and 5a in treated fibroblasts (FF2441) compared to melanoma cells. Selectivity ratio here is defined as ratio of activity against fibroblasts compared to activity against melanoma cells. Leelamine is relatively selective with a ratio of >6 and >4 for UACC903 and 1205Lu melanoma cells. The selectivity ratio of compound 4a is ˜4 and ˜3 for UACC903 and 1205Lu and for compound 4b is ˜4 for both cell lines. The selectivity ratio of compound 5a is ˜4 for UACC903 and >2 for 1205Lu cells.

[2] = test system: UACC 903 and 1205 Lu cells; assay: BrdU incorporation proliferation assay; format: cell-based, human; settings: 0.62 to 10 μmol/L, 24 hours
Experimental: as §1

[3] = test system: cell lines established from melanocytic lesions or melanomas; assay: MTS assay, leelamine on melanocytic lesion and melanoma cell lines; format: cell-based; settings: 72 hour exposure; read-out: concentration to kill 50% of cells
Experimental: The efficacy of leelamine to kill other cancer types is measured and the IC50 for cell lines derived from carcinomas of breast, lung, prostate, connective tissue, pancreas and colon determined. The MTS assay as described in Sharma, A. et al., Clin Cancer Res, 2009, 15:1674-85; and Madhunapantula, S. V. et al., Mol Cancer Ther, 2008, 7:1297-308 is used to establish the IC50 at 24, 48 and 72 hours of leelamine treatment for normal human epidermal melanocytes (FOM103), normal skin fibroblast cells (FF2441), normal skin keratinocytes (HFK) and compared to melanocytic lesion cells from the radial-, vertical- and metastatic melanoma stages. […] IC50 values for each compound in μmol/L for respective cell lines are measured from three independent experiments using GraphPad Prism version 4.01 (GraphPad Software, La Jolla, Calif.). […]
5×10^3 cells per well in 100 μL of media are plated and grown in a 96-well plate for 48 to 72 hours and treated with either DMSO vehicle control or 0.62 to 40 μmol/L of leelamine for 24, 48 or 72 hours. IC50 values for each compound in μmol/L for respective cell lines are measured from three independent experiments using GraphPad Prism version 4.01 (GraphPad Software, La Jolla, Calif.).

[4] = test system: UACC 903 and 1205 Lu cells; assay: Caspase-3/7 apoptosis assay; format: cell-based, human; settings: 0.62 to 10 μmol/L, 24 hours
Experimental: as §1

SMILES	anti-cancer activity / viability of melanoma cell lines, in words [1]	proliferation (BrdU incorporation) [2]	IC50 [3] [nM]	apoptosis (caspase-3/7 activity) [4]
CC(C)C1=CC2=CCC3[C@](C)(CCC[C@@]3(C)C(=O)O)C2CC1 (stereo partly drawn) [Abietic acid, (1R,4aR)-1,4a-dimethyl-7-(propan-2-yl)-1,2,3,4,4a,4b,5,6,10,10a-decahydrophenanthrene-1-carboxylic acid, reference compound]	no anti-cancer activity			
CC(C)c1ccc2c(c1)CCC1[C@](C)(CN)CCC[C@]21C (stereo partly drawn) [Leelamine, [(1R,4aS)-1,4a-dimethyl-7-(propan-2-yl)-1,2,3,4,4a,9,10,10a-octahydrophenanthren-1-yl]methanamine]	effectively inhibits the viability	decrease proliferation	1000 to 3000	increase apoptosis
